In patent US5804595A, “Kappa opioid receptor agonists” (Regents of the University of Minnesota, priority 1995, dated 1998) one finds IC50 data, which are given here for one compound.

The assay relates to mouse vas deferens (MVD) preparations. Kind of assay: Agonist potency in mouse vas deferens (MVD). It counts as biochemical. To be noted: arithmetic means of at least three experiments, read-out: IC50 (nM) ± SEM, MVD (Agonist Potencies of Parent Compounds).

In the case of `CN(C(=O)Cc1ccc(Cl)c(Cl)c1)C(CN1CCCC1)c1ccc([N+](=O)[O-])cc1` (racemic) [Compound 23, 2-(3,4-Dichlorophenyl)-N-methyl-N-[(1R,S)-1-(4-nitrophenyl)-2-(1-pyrrolidinyl)ethyl]acetamide], the half-maximal inhibitory concentration (IC50) is 197 ± 61 nM.

The IC50 is the concentration needed to halve the response being measured.
